Data published in US10633417B2 (priority 2013, dated 2020).

Tests used:
Sprague Dawley rats [1] = conditions: rat, in vivo
[2] = molecular target: human α9 (Ile56 to Thr) α10 nAChR (Homo sapiens, UniProt Q9GZZ6+Q9UGM1, I86T); format: cell-based
[3] = molecular target: rat α9 (Thr56 to Ile) α10 nAChR (Rattus norvegicus, UniProt P43144+Q9JLB5, T86I); format: cell-based
Sprague-Dawley rats [4] = conditions: rat, in vivo
rat α9α10 nAChR = rat α9α10 nAChR (Rattus norvegicus, UniProt P43144+Q9JLB5); conditions: cited from earlier work
Sprague-Dawley rats [5] = conditions: rat, in vivo; remark: listed apart in the source
Sprague-Dawley rats [6] = conditions: rat, in vivo; remark: listed apart in the source
Sprague-Dawley rats [7] = conditions: rat, in vivo; remark: listed apart in the source
Sprague Dawley rats [8] = conditions: rat, in vivo; remark: listed apart in the source

human α9 (Ile56 to Thr) α10 nAChR, sequence (Q9UGM1 26-479 I86T limits assumed, stated change not applied): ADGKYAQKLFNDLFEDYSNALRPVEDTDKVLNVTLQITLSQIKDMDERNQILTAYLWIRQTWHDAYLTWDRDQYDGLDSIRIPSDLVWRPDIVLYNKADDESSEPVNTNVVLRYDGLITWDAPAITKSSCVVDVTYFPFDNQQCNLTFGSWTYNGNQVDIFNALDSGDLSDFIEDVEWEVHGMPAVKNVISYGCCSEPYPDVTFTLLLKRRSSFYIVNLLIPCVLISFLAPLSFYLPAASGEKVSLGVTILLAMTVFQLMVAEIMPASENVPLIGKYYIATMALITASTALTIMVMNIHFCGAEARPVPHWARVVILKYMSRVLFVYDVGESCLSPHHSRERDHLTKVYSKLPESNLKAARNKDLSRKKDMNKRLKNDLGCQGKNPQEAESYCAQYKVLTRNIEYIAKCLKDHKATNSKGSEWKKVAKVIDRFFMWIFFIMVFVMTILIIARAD
human α9 (Ile56 to Thr) α10 nAChR, sequence (Q9GZZ6 25-450 limits assumed, stated change not applied): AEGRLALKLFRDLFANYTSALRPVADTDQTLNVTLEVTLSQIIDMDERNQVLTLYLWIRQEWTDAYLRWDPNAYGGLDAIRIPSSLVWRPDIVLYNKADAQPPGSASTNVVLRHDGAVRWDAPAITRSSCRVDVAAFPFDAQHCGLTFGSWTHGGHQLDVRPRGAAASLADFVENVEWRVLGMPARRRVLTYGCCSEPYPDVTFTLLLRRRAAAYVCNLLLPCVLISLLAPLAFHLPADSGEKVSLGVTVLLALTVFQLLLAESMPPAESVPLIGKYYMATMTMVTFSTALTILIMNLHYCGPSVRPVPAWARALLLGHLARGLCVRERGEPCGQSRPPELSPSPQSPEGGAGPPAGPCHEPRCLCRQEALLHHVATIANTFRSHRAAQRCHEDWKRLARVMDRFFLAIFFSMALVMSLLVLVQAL
rat α9α10 nAChR, sequence (P43144 26-479 limits assumed): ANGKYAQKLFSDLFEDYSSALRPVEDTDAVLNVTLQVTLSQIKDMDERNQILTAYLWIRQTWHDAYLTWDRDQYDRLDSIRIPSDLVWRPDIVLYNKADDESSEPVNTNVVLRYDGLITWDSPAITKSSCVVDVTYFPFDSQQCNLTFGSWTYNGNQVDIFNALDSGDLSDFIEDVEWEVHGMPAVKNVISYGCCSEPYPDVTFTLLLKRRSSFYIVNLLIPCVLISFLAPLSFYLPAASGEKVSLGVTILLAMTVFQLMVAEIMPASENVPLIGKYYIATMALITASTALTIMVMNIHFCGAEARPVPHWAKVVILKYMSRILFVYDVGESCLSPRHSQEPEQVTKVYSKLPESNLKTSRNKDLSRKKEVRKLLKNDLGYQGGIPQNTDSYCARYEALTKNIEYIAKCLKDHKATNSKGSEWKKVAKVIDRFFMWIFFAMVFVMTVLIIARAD
rat α9α10 nAChR, sequence (Q9JLB5 25-447 limits assumed): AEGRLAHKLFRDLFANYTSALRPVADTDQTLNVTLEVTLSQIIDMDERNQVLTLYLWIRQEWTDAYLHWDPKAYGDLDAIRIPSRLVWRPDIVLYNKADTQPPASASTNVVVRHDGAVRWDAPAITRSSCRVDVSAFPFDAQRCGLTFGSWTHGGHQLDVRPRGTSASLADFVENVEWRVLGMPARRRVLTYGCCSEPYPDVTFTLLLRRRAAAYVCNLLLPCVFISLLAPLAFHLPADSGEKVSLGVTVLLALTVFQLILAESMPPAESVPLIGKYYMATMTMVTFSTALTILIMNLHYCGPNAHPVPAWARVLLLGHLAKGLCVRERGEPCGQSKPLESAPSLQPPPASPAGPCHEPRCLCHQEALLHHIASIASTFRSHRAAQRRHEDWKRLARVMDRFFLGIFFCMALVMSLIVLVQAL
rat α9 (Thr56 to Ile) α10 nAChR, sequence (P43144 26-479 T86I limits assumed, stated change not applied): as the sequence (P43144 26-479 limits assumed) above, with T61I counted along it
rat α9 (Thr56 to Ile) α10 nAChR, sequence (Q9JLB5 25-447 limits assumed, stated change not applied): as the sequence (Q9JLB5 25-447 limits assumed) above

For GCCSDPRCRYRCR [RgIA], the “burn-induced thermal hyperalgesia (Hargraves method)” value (Sprague Dawley rats [1]) was “significantly reduced”, the “thermal hyperalgesia in the FTTI model, acute treatment” value (Sprague Dawley rats [1]) was “effectively reduces” and the “RgIA potency on human receptor with α9 Ile56 to Thr” value [2] was “increase in RgIA potency on the human receptor to levels found in rat”. For the same substance, the “increase in RgIA potency on human receptor with α9 Ile56 to Thr” value [2] was 2 log, the “RgIA potency on rat receptor with Thr56 to Ile in α9” value [3] was “reduction in RgIA potency on the rat receptor to levels found with the human receptor” and the “efficacy on mechanical hyperalgesia 24 h after injection” value (Sprague-Dawley rats [4]) was “still significant”. The “pain threshold (mechanical hyperalgesia) 30 min after injection” value (Sprague-Dawley rats [4]) was “acutely increased pain threshold”, the “prevention of OXA-induced mechanical hyperalgesia” value (Sprague-Dawley rats [4]) was “significantly prevented” and the “potency on the human versus rat α9α10 nAChR” value (rat α9α10 nAChR) was roughly 170 fold. The “prevention of OXA-induced cold allodynia, day 7” value (Sprague-Dawley rats [5]) was “able to prevent OXA-induced cold allodynia”, the “prevention of OXA-induced cold allodynia, day 14 and 21” value (Sprague-Dawley rats [5]) was “able to prevent OXA-induced cold allodynia” and the “activity on mechanical allodynia (von Frey), days 14 and 21” value (Sprague-Dawley rats [6]) was “active”. For the same substance, the “analgesic effect (von Frey), day 7, 24 h later” value (Sprague-Dawley rats [6]) was “not observed”, the “analgesic effect in OXA chemotherapy induced neuropathic pain” value (Sprague-Dawley rats [7]) was “significant analgesic effects on days 14 and 21” and the “mechanical allodynia in the FTTI model, acute treatment” value (Sprague Dawley rats [8]) was “effectively reduces”.
In the case of Vc1.1, the “potency on the human versus rat α9α10 nAChR” value (rat α9α10 nAChR) is listed as “significantly less potent”.
